From PubChem BioAssay AID248 (DTP/NCI, 2004)
Inconclusive results and toxic doses are left out. No stated cut-off is given here; in the data, active means T/C of 150% or more; inactive means T/C below 125%.

Tested on: L1210 leukemia ip in BDF1 mice, survival T/C
Experiment: NCI In Vivo Anticancer Drug Screen. Data for tumor model L1210 Leukemia (intraperitoneal) in B6D2F1 (BDF1) mice
Details: endpoint: mean survival time, higher = longer survival
Summary of the method: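 Ratio derived from survival: compound-dosed mice over vehicle-dosed mice, all bearing a transplantable tumor.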

[1] = dose: 100.0 mg/kg/injection, schedule: Q04DX003 (ip), vehicle: saline
[2] = dose: 200.0 mg/kg/injection, schedule: Q04DX003 (ip), vehicle: saline
[3] = dose: 400.0 mg/kg/injection, schedule: Q04DX003 (ip), vehicle: saline
[4] = dose: 100.0 mg/kg/injection, schedule: Q01DX001 (ip), vehicle: saline
[5] = dose: 100.0 mg/kg/injection, schedule: Q01DX009 (ip), vehicle: saline with Tween-80
[6] = dose: 200.0 mg/kg/injection, schedule: Q01DX001 (ip), vehicle: saline
[7] = dose: 200.0 mg/kg/injection, schedule: Q01DX009 (ip), vehicle: saline with Tween-80
[8] = dose: 400.0 mg/kg/injection, schedule: Q01DX001 (ip), vehicle: saline
[9] = dose: 400.0 mg/kg/injection, schedule: Q01DX009 (ip), vehicle: saline with Tween-80
[10] = dose: 100.0 mg/kg/injection, schedule: Q01DX009 (ip), vehicle: Klucel (hydroxypropylcellulose) (HPC)
[11] = dose: 200.0 mg/kg/injection, schedule: Q01DX009 (ip), vehicle: Klucel (hydroxypropylcellulose) (HPC)
[12] = dose: 25.0 mg/kg/injection, schedule: Q04DX002 (ip), vehicle: saline
[13] = dose: 50.0 mg/kg/injection, schedule: Q04DX002 (ip), vehicle: saline
[14] = dose: 100.0 mg/kg/injection, schedule: Q01DX009 (ip), vehicle: saline
[15] = dose: 100.0 mg/kg/injection, schedule: Q04DX002 (ip), vehicle: saline
[16] = dose: 200.0 mg/kg/injection, schedule: Q01DX009 (ip), vehicle: saline
[17] = dose: 400.0 mg/kg/injection, schedule: Q01DX009 (ip), vehicle: saline
[18] = dose: 100.0 mg/kg/injection, schedule: Q04DX003 (ip), vehicle: saline with Tween-80
[19] = dose: 200.0 mg/kg/injection, schedule: Q04DX003 (ip), vehicle: saline with Tween-80
[20] = dose: 400.0 mg/kg/injection, schedule: Q04DX003 (ip), vehicle: saline with Tween-80
[21] = dose: 400.0 mg/kg/injection, schedule: Q01DX009 (ip), vehicle: Klucel (hydroxypropylcellulose) (HPC)

Measured: T/C

c1ccc(CCNc2ncnc3[nH]ncc23)cc1
inactive: dose: 12.0 mg/kg/injection, schedule: Q01DX015 (ip), vehicle: carboxymethylcellulose (CMC) 97 % of control | dose: 25.0 mg/kg/injection, schedule: Q01DX015 (ip), vehicle: carboxymethylcellulose (CMC) 97 % of control | dose: 50.0 mg/kg/injection, schedule: Q01DX015 (ip), vehicle: carboxymethylcellulose (CMC) 95 % of control

CC1CNC(=O)N1 (stereo not drawn)
inactive: [1] 102 % of control | [2] 101 % of control | dose: 222.0 mg/kg/injection, schedule: Q01DX Z (ip), vehicle: saline 97 % of control | dose: 333.0 mg/kg/injection, schedule: Q01DX Z (ip), vehicle: saline 111 % of control | [3] 96 % of control | dose: 500.0 mg/kg/injection, schedule: Q01DX Z (ip), vehicle: saline 103 % of control

C[C@]12CC[C@H]3[C@@H](CCC4=CC(=O)CC[C@@]43C)[C@@H]1CC[C@@H]2OC(=O)Cc1ccc(N(CCCl)CCCl)cc1
inactive: dose: 100.0 mg/kg/injection, schedule: Q01DX001 (sc), vehicle: steriod suspending solution 94 % of control | dose: 200.0 mg/kg/injection, schedule: Q01DX001 (sc), vehicle: steriod suspending solution 96 % of control | dose: 400.0 mg/kg/injection, schedule: Q01DX001 (sc), vehicle: steriod suspending solution 91 % of control

C=CC(=O)NC12CC3CC(CC(C3)C1)C2
inactive: [4] 88 % of control | [5] 104 % of control | [6] 93 % of control | [7] 97 % of control | [8] 90 % of control | [9] 101 % of control

CC[C@@H]1C[C@@H]2CN3CCc4c([nH]c5ccc(OC)cc45)C(C(=O)OC)(C2)C13
inactive: dose: 50.0 mg/kg/injection, schedule: Q01DX009 (ip), vehicle: Klucel (hydroxypropylcellulose) (HPC) 89 % of control | [10] 94 % of control | [11] 89 % of control

CC(=O)Nc1nc(Cl)c2ncn(C3OC(COCc4ccccc4)C(OCc4ccccc4)C3OCc3ccccc3)c2n1 (stereo not drawn)
inactive: dose: 100.0 mg/kg/injection, schedule: Q04DX003 (ip), vehicle: Klucel (hydroxypropylcellulose) (HPC) 103 % of control | dose: 200.0 mg/kg/injection, schedule: Q04DX003 (ip), vehicle: Klucel (hydroxypropylcellulose) (HPC) 103 % of control | dose: 400.0 mg/kg/injection, schedule: Q04DX003 (ip), vehicle: Klucel (hydroxypropylcellulose) (HPC) 104 % of control

N#CSCN1C(=O)C2CC=CCC2C1=O (stereo not drawn)
inactive: dose: 25.0 mg/kg/injection, schedule: Q04DX003 (ip), vehicle: saline with Tween-80 97 % of control

CC(N)C(=O)O (stereo not drawn)
inactive: [12] 101 % of control | [13] 101 % of control | [4] 92 % of control | [14] 104 % of control | [15] 104 % of control | [1] 97 % of control | [6] 96 % of control | [16] 91 % of control | [2] 100 % of control | [8] 105 % of control | [17] 98 % of control | [3] 100 % of control

O=C(COc1ccc(Cl)cc1Cl)NC(O)C(Cl)(Cl)Cl (stereo not drawn)
inactive: [5] 94 % of control | [18] 100 % of control | [7] 87 % of control | [19] 97 % of control | [9] 89 % of control | [20] 94 % of control

CC(=O)N/C(N)=N/N=C(C)/C=N\N
inactive: dose: 15.0 mg/kg/injection, schedule: Q01DX Z (ip), vehicle: carboxymethylcellulose (CMC) 96 % of control | dose: 30.0 mg/kg/injection, schedule: Q01DX Z (ip), vehicle: carboxymethylcellulose (CMC) 96 % of control | dose: 60.0 mg/kg/injection, schedule: Q01DX Z (ip), vehicle: carboxymethylcellulose (CMC) 101 % of control | dose: 120.0 mg/kg/injection, schedule: Q01DX Z (ip), vehicle: carboxymethylcellulose (CMC) 101 % of control | dose: 120.0 mg/kg/injection, schedule: Q01DX Z (oral), vehicle: carboxymethylcellulose (CMC) 111 % of control

O=C(O)c1ccc(SSc2ccc(C(=O)O)cn2)nc1
inactive: [1] 102 % of control | [2] 101 % of control | [3] 104 % of control

COc1cc2c(c(OC)c1OC)-c1ccc(=O)c(OC)cc1[C@@H](NC(=O)CCl)CC2
inactive: dose: 100.0 mg/kg/injection, schedule: Q01DX001 (ip), vehicle: Klucel (hydroxypropylcellulose) (HPC) 94 % of control | [10] 103 % of control | dose: 200.0 mg/kg/injection, schedule: Q01DX001 (ip), vehicle: Klucel (hydroxypropylcellulose) (HPC) 98 % of control | [11] 103 % of control | dose: 400.0 mg/kg/injection, schedule: Q01DX001 (ip), vehicle: Klucel (hydroxypropylcellulose) (HPC) 105 % of control

CC(C)NNC(=O)c1ccccc1
inactive: [12] 109 % of control | [13] 120 % of control | [15] 109 % of control

N#CC(Nc1ncccn1)c1ccccc1 (stereo not drawn)
inactive: dose: 50.0 mg/kg/injection, schedule: Q01DX009 (ip), vehicle: saline with Tween-80 104 % of control | [5] 93 % of control | [7] 104 % of control

O=C(O)C1C2C=CC(C2)C1C(=O)Nc1ccccc1 (stereo not drawn)
inactive: [18] 106 % of control | [19] 96 % of control | [20] 101 % of control

CCC1OCC(C(Cl)CCl)O1 (stereo not drawn)
inactive: dose: 100.0 mg/kg/injection, schedule: Q01DX009 (ip), vehicle: saline sonified 99 % of control

Nc1nc2ncc(CNc3ncc(C(=O)NC(CCC(=O)O)C(=O)O)s3)nc2c(=O)[nH]1 (stereo not drawn)
inactive: dose: 50.0 mg/kg/injection, schedule: Q01DX001 (ip), vehicle: other 105 % of control | dose: 100.0 mg/kg/injection, schedule: Q01DX001 (ip), vehicle: other 106 % of control

CC1=CC=C(C(=O)O)C1
inactive: [10] 90 % of control | [11] 100 % of control | [21] 92 % of control

NC(=O)OCC#CCN1CCCC1
inactive: dose: 5.0 mg/kg/injection, schedule: Q04DX003 (ip), vehicle: saline with Tween-80 96 % of control | dose: 10.0 mg/kg/injection, schedule: Q04DX003 (ip), vehicle: saline with Tween-80 98 % of control | dose: 20.0 mg/kg/injection, schedule: Q04DX003 (ip), vehicle: saline with Tween-80 93 % of control

ClCc1cccc2c(CCl)cccc12
inactive: dose: 50.0 mg/kg/injection, schedule: Q01DX001 (ip), vehicle: saline 101 % of control | [4] 101 % of control

NC(=S)NNC(=S)S
inactive: [10] 98 % of control | [11] 98 % of control | [21] 109 % of control

O=C(O)Cc1ccc2c(c1)OCO2.[Ag]
inactive: dose: 9.38 mg/kg/injection, schedule: Q01DX001 (ip), vehicle: steriod suspending solution 95 % of control | dose: 18.75 mg/kg/injection, schedule: Q01DX001 (ip), vehicle: steriod suspending solution 94 % of control | dose: 37.5 mg/kg/injection, schedule: Q01DX001 (ip), vehicle: steriod suspending solution 92 % of control

Cc1nc2nc(N)[nH]c(=O)c2[nH]c1=O
inactive: [14] 89 % of control | [1] 100 % of control | [16] 88 % of control | [2] 96 % of control | [3] 96 % of control

CC(Br)C(=O)NCC(=O)NCC(=O)O (stereo not drawn)
inactive: [14] 100 % of control | [1] 101 % of control | [16] 89 % of control | [2] 101 % of control | [17] 90 % of control | [3] 97 % of control
